Laboratory results reported in patent publication US11446287B2, “Compounds and methods for EP300 or CBP modulation and indications therefor” (Opna Immuno-Oncology SA, priority 2019, dated 2022).

The molecules below were run against T1, Recombinant human CBP containing the bromodomain (CBP-BD (1043-1159)) (Homo sapiens, UniProt Q92793) (assay: CBP Alphascreen binding assay). Details: read-out: CREBBP (CBP) IC50.
T1 construct: Recombinant human CBP bromodomain (CBP-BD (1043-1159)); made in house; host or cells: E. coli BL21-CodonPlus (DE3), modified pET vector
T1 sequence (Q92793 1081-1197): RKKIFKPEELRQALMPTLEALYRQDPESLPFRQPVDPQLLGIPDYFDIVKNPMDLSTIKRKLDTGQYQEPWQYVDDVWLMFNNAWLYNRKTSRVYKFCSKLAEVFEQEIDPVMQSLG
Outline: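 Buffer: 50 mM HEPES pH 7.5, 50 mM NaCl, 0.01% BSA, 0.01% Triton X-100, 2 mM DTT. The signal was normalised to plate controls and fitted with a four-parameter curve to give IC50.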
Molecule `COc1cc(C(=O)O)ncc1-c1cn(C(C2CC2)C2CC2)c2ncc(-c3c(C)noc3C)cc12` [P-0339, 5-(1-(dicyclopropylmethyl)-5-(3,5-dimethylisoxazol-4-yl)-1H-pyrrolo[2,3-b]pyridin-3-yl)-4-methoxypicolinic acid] has an IC50 of 0.1 to 1000 nM. Molecule `Cc1noc(C)c1-c1cnc2c(c1)c(-c1c(Cl)cc(C(=O)O)cc1OCC(F)F)cn2C(C1CC1)C1CC1` [P-0340, 3-chloro-4-(1-(dicyclopropylmethyl)-5-(3,5-dimethylisoxazol-4-yl)-1H-pyrrolo[2,3-b]pyridin-3-yl)-5-(2,2-difluoroethoxy)benzoic acid] has an IC50 of 0.1 to 1000 nM. `Cc1noc(C)c1-c1cnc2c(c1)c(-c1ccc(C(=O)O)cc1OC1CCC1)cn2C1CCOCC1` [P-0341, 3-cyclobutoxy-4-(5-(3,5-dimethylisoxazol-4-yl)-1-(tetrahydro-2H-pyran-4-yl)-1H-pyrrolo[2,3-b]pyridin-3-yl)benzoic acid] was tested, and the IC50 was 0.1 to 1000 nM. For `Cc1noc(C)c1-c1cnc2c(c1)c(-c1ccc(C(=O)O)cc1OC(C)C)c(C)n2C(C1CC1)C1CC1` [P-0342, 4-(1-(dicyclopropylmethyl)-5-(3,5-dimethylisoxazol-4-yl)-2-methyl-1H-pyrrolo[2,3-b]pyridin-3-yl)-3-isopropoxybenzoic acid], the IC50 was 0.1 to 1000 nM. For `Cc1noc(C)c1-c1cnc2c(c1)c(-c1ccc(C(=O)O)cc1OC(F)(F)F)c(C)n2C(C1CC1)C1CC1` [P-0343, 4-(1-(dicyclopropylmethyl)-5-(3,5-dimethylisoxazol-4-yl)-2-methyl-1H-pyrrolo[2,3-b]pyridin-3-yl)-3-(trifluoromethoxy)benzoic acid], the IC50 was 0.1 to 1000 nM. Work on `Cc1noc(C)c1-c1ccc2c(c1)c(-c1ccc(C(=O)O)cc1OC(F)(F)F)cn2C(C1CC1)C1CC1` [P-0344, 4-(1-(dicyclopropylmethyl)-5-(3,5-dimethylisoxazol-4-yl)-1H-indol-3-yl)-3-(trifluoromethoxy)benzoic acid] yielded an IC50 of 0.1 to 1000 nM. Work on `Cc1noc(C)c1-c1cnc2c(c1)c(-c1ccc(C(=O)O)cc1OC(F)(F)F)c(C)n2-c1ncccc1C#N` [P-0345, 4-(1-(3-cyanopyridin-2-yl)-5-(3,5-dimethylisoxazol-4-yl)-2-methyl-1H-pyrrolo[2,3-b]pyridin-3-yl)-3-(trifluoromethoxy)benzoic acid] yielded an IC50 of 0.1 to 1000 nM. For `Cc1noc(C)c1-c1cnc2c(c1)c(-c1c(Cl)cc(C(=O)O)cc1OC(F)(F)F)cn2[C@H]1CCOC1` [P-0346, (S)-3-chloro-4-(5-(3,5-dimethylisoxazol-4-yl)-1-(tetrahydrofuran-3-yl)-1H-pyrrolo[2,3-b]pyridin-3-yl)-5-(trifluoromethoxy)benzoic acid], the IC50 was 0.1 to 1000 nM. With `Cc1noc(C)c1-c1cnc2c(c1)c(-c1ccc(C(=O)O)cc1OC1CCC1)cn2-c1cnc(N2CCC2)nc1` [P-0347, 4-(1-(2-(azetidin-1-yl)pyrimidin-5-yl)-5-(3,5-dimethylisoxazol-4-yl)-1H-pyrrolo[2,3-b]pyridin-3-yl)-3-cyclobutoxybenzoic acid] the IC50 was 0.1 to 1000 nM. Molecule `Cc1noc(C)c1-c1cnc2c(c1)c(-c1c(F)cc(C(=O)O)cc1OCC(F)F)cn2-c1cnc(N2CCC2)nc1` [P-0348, 4-(1-(2-(azetidin-1-yl)pyrimidin-5-yl)-5-(3,5-dimethylisoxazol-4-yl)-1H-pyrrolo[2,3-b]pyridin-3-yl)-3-(2,2-difluoroethoxy)-5-fluorobenzoic acid] has an IC50 of 0.1 to 1000 nM. `Cc1nn(C(F)F)cc1-n1cc(-c2ccc(C(=O)O)cc2OCC(F)F)c2cc(-c3c(C)noc3C)cnc21` [P-0349, 3-(2,2-difluoroethoxy)-4-(1-(1-(difluoromethyl)-3-methyl-1H-pyrazol-4-yl)-5-(3,5-dimethylisoxazol-4-yl)-1H-pyrrolo[2,3-b]pyridin-3-yl)benzoic acid] was tested, and the IC50 was 0.1 to 1000 nM. Molecule `Cc1noc(C)c1-c1cnc2c(c1)c(-c1ccc(C(=O)O)cc1OC1CCC1)cn2[C@H]1CCOC1` [P-0350, (S)-3-cyclobutoxy-4-(5-(3,5-dimethylisoxazol-4-yl)-1-(tetrahydrofuran-3-yl)-1H-pyrrolo[2,3-b]pyridin-3-yl)benzoic acid] has an IC50 of 0.1 to 1000 nM. Work on `Cc1nn(C(F)F)cc1-n1cc(-c2ccc(C(=O)O)cc2OC2CCC2)c2cc(-c3c(C)noc3C)cnc21` [P-0351, 3-cyclobutoxy-4-(1-(1-(difluoromethyl)-3-methyl-1H-pyrazol-4-yl)-5-(3,5-dimethylisoxazol-4-yl)-1H-pyrrolo[2,3-b]pyridin-3-yl)benzoic acid] yielded an IC50 of 0.1 to 1000 nM. Work on `Cc1noc(C)c1-c1cnc2c(c1)c(-c1c(Cl)cc(C(=O)O)cc1OCC(F)F)cn2-c1cnn(C(F)F)c1C` [P-0352, 3-chloro-5-(2,2-difluoroethoxy)-4-(1-(1-(difluoromethyl)-5-methyl-1H-pyrazol-4-yl)-5-(3,5-dimethylisoxazol-4-yl)-1H-pyrrolo[2,3-b]pyridin-3-yl)benzoic acid] yielded an IC50 of 0.1 to 1000 nM. Molecule `Cc1noc(C)c1-c1cnc2c(c1)c(-c1ccc(C(=O)O)cc1OC1CCC1)cn2-c1cnn(C(F)F)c1C` [P-0353, 3-cyclobutoxy-4-(1-(1-(difluoromethyl)-5-methyl-1H-pyrazol-4-yl)-5-(3,5-dimethylisoxazol-4-yl)-1H-pyrrolo[2,3-b]pyridin-3-yl)benzoic acid] has an IC50 of 0.1 to 1000 nM. `Cc1noc(C)c1-c1cnc2c(c1)c(-c1ccc(C(=O)O)cc1OC(C)C)cn2-c1cnn(C(F)F)c1C` [P-0354, 4-(1-(1-(difluoromethyl)-5-methyl-1H-pyrazol-4-yl)-5-(3,5-dimethylisoxazol-4-yl)-1H-pyrrolo[2,3-b]pyridin-3-yl)-3-isopropoxybenzoic acid] showed an IC50 of 0.1 to 1000 nM. `Cc1noc(C)c1-c1cnc2c(c1)c(-c1c(Cl)cc(C(=O)O)cc1OC(F)(F)F)cn2C1CCOCC1` [P-0355, 3-chloro-4-(5-(3,5-dimethylisoxazol-4-yl)-1-(tetrahydro-2H-pyran-4-yl)-1H-pyrrolo[2,3-b]pyridin-3-yl)-5-(trifluoromethoxy)benzoic acid] was tested, and the IC50 was 0.1 to 1000 nM. `Cc1noc(C)c1-c1cnc2c(c1)c(-c1c(Cl)cc(C(=O)O)cc1OC1CCC1)cn2C(C1CC1)C1CC1` [P-0356, 3-chloro-5-cyclobutoxy-4-(1-(dicyclopropylmethyl)-5-(3,5-dimethylisoxazol-4-yl)-1H-pyrrolo[2,3-b]pyridin-3-yl)benzoic acid] gave an IC50 of 0.1 to 1000 nM. Molecule `Cc1noc(C)c1-c1cnc2c(c1)c(-c1ccc(C(=O)O)cc1OC(C)C)cn2C1CCOCC1` [P-0357, 4-(5-(3,5-dimethylisoxazol-4-yl)-1-(tetrahydro-2H-pyran-4-yl)-1H-pyrrolo[2,3-b]pyridin-3-yl)-3-isopropoxybenzoic acid] has an IC50 of 0.1 to 1000 nM. With `Cc1noc(C)c1-c1cnc2c(c1)c(-c1c(Cl)cc(C(=O)O)cc1OC1CCC1)cn2C1CCOCC1` [P-0358, 3-chloro-5-cyclobutoxy-4-(5-(3,5-dimethylisoxazol-4-yl)-1-(tetrahydro-2H-pyran-4-yl)-1H-pyrrolo[2,3-b]pyridin-3-yl)benzoic acid] the IC50 was 0.1 to 1000 nM. `Cc1noc(C)c1-c1cnc2c(c1)c(-c1c(Cl)cc(C(=O)O)cc1OCC(F)F)cn2C1CCOCC1` [P-0359, 3-chloro-5-(2,2-difluoroethoxy)-4-(5-(3,5-dimethylisoxazol-4-yl)-1-(tetrahydro-2H-pyran-4-yl)-1H-pyrrolo[2,3-b]pyridin-3-yl)benzoic acid] gave an IC50 of 0.1 to 1000 nM. `CCOc1cc(C(=O)O)c(F)cc1-c1cn([C@H]2CCOC2)c2ncc(-c3c(C)noc3C)cc12` [P-0360, (S)-4-(5-(3,5-dimethylisoxazol-4-yl)-1-(tetrahydrofuran-3-yl)-1H-pyrrolo[2,3-b]pyridin-3-yl)-5-ethoxy-2-fluorobenzoic acid] was tested, and the IC50 was 0.1 to 1000 nM. Work on `Cc1noc(C)c1-c1cnc2c(c1)c(-c1c(Cl)cc(C(=O)O)cc1OC1CCC1)cn2[C@H]1CCOC1` [P-0361, (S)-3-chloro-5-cyclobutoxy-4-(5-(3,5-dimethylisoxazol-4-yl)-1-(tetrahydrofuran-3-yl)-1H-pyrrolo[2,3-b]pyridin-3-yl)benzoic acid] yielded an IC50 of 0.1 to 1000 nM. With `COc1cc(C(=O)O)ncc1-c1cn(C2CCOCC2)c2ncc(-c3c(C)noc3C)cc12` [P-0362, 5-(5-(3,5-dimethylisoxazol-4-yl)-1-(tetrahydro-2H-pyran-4-yl)-1H-pyrrolo[2,3-b]pyridin-3-yl)-4-methoxypicolinic acid] the IC50 was 0.1 to 1000 nM. With `Cc1noc(C)c1-c1cnc2c(c1)c(-c1c(Cl)cc(C(=O)O)cc1OC1CC1)cn2C(C1CC1)C1CC1` [P-0363, 3-chloro-5-cyclopropoxy-4-(1-(dicyclopropylmethyl)-5-(3,5-dimethylisoxazol-4-yl)-1H-pyrrolo[2,3-b]pyridin-3-yl)benzoic acid] the IC50 was 0.1 to 1000 nM. `Cc1noc(C)c1-c1cnc2c(c1)c(-c1ccc(C(=O)O)cc1OC(F)(F)F)cn2CC1(C#N)CCC1` [P-0364, 4-(1-((1-cyanocyclobutyl)methyl)-5-(3,5-dimethylisoxazol-4-yl)-1H-pyrrolo[2,3-b]pyridin-3-yl)-3-(trifluoromethoxy)benzoic acid] showed an IC50 of 0.1 to 1000 nM. Work on `Cc1nn(CC(C)(C)O)cc1-n1cc(-c2ccc(C(=O)O)cc2OC(F)(F)F)c2cc(-c3c(C)noc3C)cnc21` [P-0365, 4-(5-(3,5-dimethylisoxazol-4-yl)-1-(1-(2-hydroxy-2-methylpropyl)-3-methyl-1H-pyrazol-4-yl)-1H-pyrrolo[2,3-b]pyridin-3-yl)-3-(trifluoromethoxy)benzoic acid] yielded an IC50 of 0.1 to 1000 nM. In the case of `Cc1nn(CC(=O)N(C)C)cc1-n1cc(-c2ccc(C(=O)O)cc2OC(F)(F)F)c2cc(-c3c(C)noc3C)cnc21` [P-0366, 4-(1-(1-(2-(dimethylamino)-2-oxoethyl)-3-methyl-1H-pyrazol-4-yl)-5-(3,5-dimethylisoxazol-4-yl)-1H-pyrrolo[2,3-b]pyridin-3-yl)-3-(trifluoromethoxy)benzoic acid], the IC50 is reported as 0.1 to 1000 nM. `Cc1cc(C(=O)O)cc(OCC(F)F)c1-c1cn(C2CCOCC2)c2ncc(-c3c(C)noc3C)cc12` [P-0367, 3-(2,2-difluoroethoxy)-4-(5-(3,5-dimethylisoxazol-4-yl)-1-(tetrahydro-2H-pyran-4-yl)-1H-pyrrolo[2,3-b]pyridin-3-yl)-5-methylbenzoic acid] was tested, and the IC50 was 0.1 to 1000 nM.
